The values that follow come from patent publication US20060140888A1, “Whitening agent containing crystalline molecular complex of hydroquinone and surfactant” (priority 2002, published 2006).

Read-outs that look alike come from different tables or passages of the source.

Data set [1] can be described thus: Storage stability (outer appearance change) of ointments containing molecular complex crystals. The data set is classed as physicochemical. As to conditions: hydrophilic ointment containing 5%, 2 weeks in air at room temperature. An excerpt: Storage Sstability (Outer Appearance Change) of Ointments Prepared by Combining Different Surfactant/Hydroquinone Molecular Complex Crystals with Ointment Bases (Simple Ointment, Hydrophilic Ointment)

For data set [2] the following is noted: cited from earlier work.
Another data set deals with back of a person. The data set can be described thus: Visual observation test for skin reaction (patch test). It counts as in vivo, human. The settings on record: for skin reaction (visual): patch test, kneaded with white vaseline. How it is done:
A simple surfactant and surfactant/hydroquinone molecular complex crystals were kneaded with white vaseline, and used for a patch test with a patch tester (Torii Yakuhin) on the back of a person. Skin reactions such as eruption, redness, edema or papules were visually noted 48 hours after applying each patch. Skin reactions were also confirmed after 72 hours. The samples used for the patch test were as follows (where the percentage values indicate the proportions of the surfactant or molecular complex crystals).

Turning to `Oc1ccc(O)cc1` [simple hydroquinone, 1,4-benzenediol], the “outer appearance (coloration) of hydrophilic ointment” value in data set [1] is reported as “Brown spots were confirmed”. In addition, the solubility entry was “poorly soluble” in data set [2] (in benzene); “readily soluble” in data set [2] (in ether); “poorly soluble” in data set [2] (in ethyl acetate); “readily soluble” in data set [2] (in methanol); “soluble” in data set [2] (in water).
For `CCCCCCCCCCCCCCCC[N+](C)(C)Cc1ccccc1.[Cl-]` [No. 7, hexadecyldimethylbenzylammonium chloride], in the data set on back of a person (after 48 hours), the “overall evaluation of patch test” value is on record as “negative” and the “skin reaction (visual)” value is listed as “some redness was found at the center area”. Besides, in the data set on back of a person (after 72 hours), the “overall evaluation of patch test” value is “negative” and the “skin reaction (visual)” value is “Some redness remained in the center area”.
